Measurements: article PMC10538174, “Bioactivity-Guided Synthesis: In Silico and In Vitro Studies of β-Glucosidase Inhibitors to Cope with Hepatic Cytotoxicity” (Molecules, 2023)

How the values were obtained:
HepG2 cells = test: MTT cell viability assay on HepG2 hepatic cancer cells; type: cell-based, human; conditions: for viability at 200 µg / IC50: Homo sapiens, HepG2, 48 h, MTT, 48 h; for viability at 200 µg: concentration of 200 µg, read-out: % viability ± SD against HepG2 cancer cell lines; for IC50: read-out: IC50 ± SEM against HepG2 cancer cell line
Procedure: (§1) All of the reported results are the mean of three independent experiments, and those compounds showing > 50% inhibition were further analyzed for their IC50 values at different dilutions. The IC50 values were calculated by using nonlinear regression analysis and GraphPad Prism version 8. SEM = standard error mean.
The human liver cells were cultivated in Dulbecco’s modified Eagle medium (DMEM), in which 100 U/mL penicillin, 10% fetal bovine, and 100 µg/mL streptomycin were added and kept at 37 °C in a […] carbon dioxide-induced humidified environment. The human liver cells prepared as per the above procedure were then treated with synthesized compounds diluted to a 0.05% DMSO concentration.
By using an MTT assay, the %viability of cancer cells was evaluated. According to the standard procedure, the HepG2 cells were treated with various dosages of synthesized compounds for 48 h each. The cells were then incubated for 4 h at 37 °C with 10 μMTT reagent (5 mg/mL). Next, 150 μL of DMSO was added to dissolve the formazan crystals. The λmax was recorded at […] in a microplate reader (Thermos Scientific, Waltham, MA, USA).

[1] = test system: β-glucosidase from E. coli; test: β-glucosidase enzyme inhibition assay (p-nitrophenyl-β-D-glucopyranoside substrate); type: biochemical; conditions: for IC50: E. coli enzyme, pH 6.8, 37 °C, read at 405 nm, read-out: IC50 ± SEM against β-glucosidase; for % inhibition ± SD against β-glucosidase: test concentration not given
Procedure: β-glucosidase inhibition activity of the synthesized compounds, with an enzyme concentration of […] were used for the inhibition assay. The IC50 values were determined at different concentrations using Graph Pad Prism v5.0.
as §1
The inhibition analysis of β-glucosidase was carried out, where p-nitrophenyl-β-D-glucopyranoside was used as a substrate, and the β-glucosidase from E. coli (purchased from Sigma Aldrich) was dissolved in buffer solution (pH 6.8). A total volume of 60 µL of sodium phosphate buffer, 10 µL of each test sample (dissolved in 1% DMSO), and 10 µL of enzyme (1.5 U/mL) were mixed together and incubated for 5 min at 37 °C, followed by the addition of 10 µL of p-nitrophenyl-β-D-glucopyranoside (dissolved in a buffer solution). Incubation of the mixture was carried out for 30 min, and 10 µL of 0.2 M sodium carbonate solution was subsequently added. DMSO (1%) was used as a negative control. The p-nitrophenol produced from p-nitrophenyl-β-D-glucopyranoside was measured at a λmax of 405 nm in order to evaluate the activity of the test compounds against β-glucosidase. The %inhibition of β-glucosidase was calculated by the following formula: %Inhibition=(100−sample/control×100
Graph Pad Prism v5.00 was used to find out the IC50 (concentration at which 50% of enzymatic activity was inhibited by the test sample) value from a second-order regression analysis.

Row | Structure (SMILES) | viability at 200 µg (HepG2 cells) [%] | more anti-tumor activity against the HepG2 cell line than the known drug (HepG2 cells; versus thalidomide) | IC50 [1] [µM] | % inhibition ± SD against β-glucosidase [1] [%] | β-glucosidase inhibition better than the standard ([1]; versus acarbose) [%] | IC50 (HepG2 cells) [µM]
1 | O=C(O)c1ccccc1C(=O)Nc1ccc(Cl)c(C(F)(F)F)c1 [Compound 3c] | 12.8 | greater than 9% | 3 ± 0.17 | 70 ± 2.82 |  | 
2 | O=C1c2ccccc2C(=O)N1Cc1ccccc1 [Compound 6c] |  |  |  | 45.0 ± 1.41 |  | 
3 | O=C1c2ccccc2C(=O)N1c1ccccc1 [Compound 12c] | 27.2 |  |  | 45.2 ±0.4 |  | 
4 | C[C@H]1O[C@H](O[C@H]2[C@H](O)[C@@H](O)[C@@H](O[C@H]3[C@H](O)[C@@H](O)C(O)O[C@@H]3CO)O[C@@H]2CO)[C@H](O)[C@@H](O)[C@@H]1N[C@H]1C=C(CO)[C@@H](O)[C@H](O)[C@H]1O (stereo partly shown) [Acarbose, reference compound] |  |  | 2.15 |  |  | 
5 | O=C(O)CCCCCN1C(=O)c2ccccc2C1=O [Compound 8c] | 24.8 |  | 4.78 ± 0.27 | 70.5 ± 2.12 |  | 
6 | O=C(O)c1ccccc1C(=O)N1CCN(CCN2C(=O)c3ccccc3C2=O)CC1 [Compound 5c] | 42.2 ± 2.2 |  | 1.26 ± 0.11 | 71 ± 1.2 |  | 
7 | O=C(O)c1ccccc1C(=O)Nc1ccc([N+](=O)[O-])cc1 [Compound 2c] | 29.4 |  | 2.17 ± 0.11 | 68 ± 1.41 |  | 
8 | O=C(O)c1ccc(NC(=O)c2ccccc2C(=O)O)cc1 [Compound 1c] | 35.6 |  | 1.26 | 76 ± 1.41 | 40 | 
9 | O=C(O)c1ccc(N2C(=O)c3ccccc3C2=O)cc1 [Compound 9c] |  |  |  | 61.5 ±0.12 |  | 
10 | Cc1ccc(N2C(=O)c3ccccc3C2=O)cc1 [Compound 7c] | 21.4 ± 3.4 |  | 6.98 ± 0.31 | 63.5 ± 0.71 |  | 12.8 ± 2.33
11 | Cc1c(N2C(=O)c3ccccc3C2=O)c(=O)n(-c2ccccc2)n1C [Compound 11c] | 40.8 ± 2.5 |  | 9.57 ± 0.22 | 56.5 ± 2.45 |  | 
12 | O=C(O)c1ccccc1C(=O)Nc1ccc(Cl)cc1 [Compound 4c] | 26.9 |  |  | 42 ± 1.42 |  | 
13 | O=C1c2ccccc2C(=O)N1c1ccccc1F [Compound 10c] | 20.5 ± 4.2 |  |  | 50.5 ± 2.31 |  | 48 ± 2.18
